Data as given in paper PMC9515472, “The AhR ligand phthiocol and vitamin K analogs as Pseudomonas aeruginosa quorum sensing inhibitors” (Frontiers in Microbiology, 2022).
Like-named read-outs stand apart in the source and are kept apart here.

Columns and labels:
[1] = target: T1, human recombinant AhR protein (Homo sapiens, UniProt P35869); assay: Microscale thermophoresis (MST) binding to AhR protein
T1 sequence (P35869 128-399): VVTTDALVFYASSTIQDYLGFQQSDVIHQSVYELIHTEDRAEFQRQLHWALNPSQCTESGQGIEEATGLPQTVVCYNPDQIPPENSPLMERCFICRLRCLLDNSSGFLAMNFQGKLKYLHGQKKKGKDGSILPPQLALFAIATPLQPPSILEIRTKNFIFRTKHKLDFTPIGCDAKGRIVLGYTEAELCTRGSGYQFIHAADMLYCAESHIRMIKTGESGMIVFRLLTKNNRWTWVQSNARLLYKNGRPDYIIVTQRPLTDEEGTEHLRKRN

P. aeruginosa PAO1 = format: cell-based, Pseudomonas aeruginosa
AHRR = assay: qRT-PCR of AhR downstream gene AHRR in THP-1 cells; format: cell-based, human; details: for AHRR expression change in THP-1 AhR KD cells: THP-1 AhR-Knockdown (KD) cells; for AHRR transcription promoted: vs DMSO, increase
[2] = tested on: P. aeruginosa pqs QS system (pqsA-gfp); format: cell-based, Pseudomonas aeruginosa
CYP1B1 = assay: qRT-PCR of AhR downstream gene CYP1B1 in THP-1 cells; details: for CYP1B1 expression change in THP-1 AhR KD cells: THP-1 AhR-Knockdown (KD) cells
[3] = tested on: P. aeruginosa pqs QS system (pqsA-gfp); format: cell-based, Pseudomonas aeruginosa; remark: listed apart in the source
[4] = tested on: P. aeruginosa PAO1 proteome; format: cell-based, Pseudomonas aeruginosa; details: Bac_Pht vs Bac
[5] = tested on: P. aeruginosa PAO1 biofilm formation; assay: Biofilm formation assay (crystal violet staining); format: cell-based, Pseudomonas aeruginosa
P.aeruginosa = tested on: P.aeruginosa; parameters: method as in Shinde and Wadekar, 2018; details: due to metal ion chelating capacity; ref Shinde and Wadekar, 2018; cited from earlier work
[6] = target: PqsR binding to the pqsA promoter (Pseudomonas aeruginosa, UniProt Q9I4X0); assay: Electrophoretic mobility shift assay (EMSA) with biotinylated pqsA promoter and cell lysates; format: biochemical; details: PAO1 WT cell lysates
PqsR binding to the pqsA promoter, sequence (Q9I4X0 whole entry): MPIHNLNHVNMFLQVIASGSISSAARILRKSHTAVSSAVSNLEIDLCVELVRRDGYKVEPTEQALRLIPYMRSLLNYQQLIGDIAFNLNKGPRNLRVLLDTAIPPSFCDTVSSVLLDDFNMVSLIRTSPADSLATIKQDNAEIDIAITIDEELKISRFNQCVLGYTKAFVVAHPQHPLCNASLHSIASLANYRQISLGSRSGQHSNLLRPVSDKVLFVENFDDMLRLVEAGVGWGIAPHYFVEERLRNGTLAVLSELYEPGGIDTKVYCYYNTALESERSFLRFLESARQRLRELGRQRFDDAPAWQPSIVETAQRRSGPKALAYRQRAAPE

[7] = tested on: P. aeruginosa PAO1 pyocyanin production; assay: Pyocyanin quantification assay; format: cell-based, Pseudomonas aeruginosa
[8] = tested on: P. aeruginosa rhamnolipid productions; format: cell-based, Pseudomonas aeruginosa; details: Supplementary Figure 1
[9] = 10 μM, THP-1 human monocytes, 24 h, vs DMSO alone, repression
[10] = 10 μM, THP-1 human monocytes, 24 h

Row | SMILES | Kd [1] | effect on growth of P. aeruginosa (P. aeruginosa PAO1) | AHRR expression change in THP-1 AhR KD cells (AHRR) | induction of pqsA-gfp expression [2] | CYP1B1 expression change in THP-1 AhR KD cells (CYP1B1) | inhibition of pqsA-gfp expression [3] | AHRR transcription promoted (AHRR; [10]) | other results
1 | CCCCCCCc1[nH]c2ccccc2c(=O)c1O [PQS, 2-heptyl-3-hydroxy-4 (1H)-quinolone] | 3.75 µM | could not affect the growth | no significant expression changes | induced the pqsA-gfp expression in a dose-dependent manner | no significant expression changes | – | – | AHRR transcription repressed (AHRR; [9]): 2.5 fold; CYP1B1 transcription repressed (CYP1B1; [9]): 2.3 fold
2 | CC1=CC(=O)c2ccccc2C1=O [Vitamin K3, Menadione] | 2.17 µM | without affecting growth | – | – | – | inhibit pqsA-gfp expression dose-dependently | – | –
3 | CC(C)=CCC/C(C)=C/CC/C(C)=C/CC/C(C)=C/CC1=C(C)C(=O)c2ccccc2C1=O [Vitamin K2, Menaquinones] | 0.586 µM | without affecting growth | – | – | – | inhibit pqsA-gfp expression dose-dependently | – | –
4 | CC1=C(C/C=C(\C)CCC[C@H](C)CCC[C@H](C)CCCC(C)C)C(=O)c2ccccc2C1=O [Vitamin K1, Phylloquinone] | 1.99 µM | without affecting growth | no change | – | no change | inhibit pqsA-gfp expression dose-dependently | 1.6 fold | –
5 | CC1=C(O)C(=O)c2ccccc2C1=O [Pht, 2-hydroxy-3-methyl-1,4-naphthoquinone] | 0.474 µM | could not affect the growth | – | not | – | inhibit pqsA-gfp expression in a dose-dependent manner | 1.9 fold | FC(group2_group1) ([4]; PA1768, Zn_protease domain-containing protein, pValue 0.168581, Sig 0): 0.5758; FC(group2_group1) ([4]; PA4677, Dipeptidase, pValue 0.361511, Sig 0): 0.5653; FC(group2_group1) ([4]; PA5194, acidPPc domain-containing protein, pValue 0.333715, Sig 0): 0.5551; FC(group2_group1) ([4]; PA5195, Heat shock protein 15, pValue 0.131054, Sig 0): 0.3354; FC(group2_group1) ([4]; PA5437, Probable transcriptional regulator, pValue 0.358265, Sig 0): 0.4217; biofilm formation [5]: suppressed by Pht to a level comparable to that of the PAO1 ΔlasIΔrhlI and the ΔpqsC strains; anti-P.aeruginosa activity (P.aeruginosa): moderate; effect on binding of PqsR (PAO1 cell lysates) to Bio-pqsA promoter [6]: attenuated the interaction between PAO1 cell lysates and Bio-pqsA; optimal concentration for inhibition of pqsA-gfp expression ([3]; PAO1 PpqsA-gfp strain): 750 nM; pyocyanin production [7]: suppressed by Pht to a level comparable to that of PAO1 ΔlasIΔrhlI strain and the ΔpqsC strain; CYP1B1 transcription promoted (CYP1B1; 10 μM, THP-1 human monocytes, 24 h, vs DMSO, increase): 2.2 fold; rhamnolipid production [8]: did not inhibit
